Experimental data as given in US20250367166A1, “NEXT GENERATION DIPROVOCIMS THAT ACTIVATE THE INNATE AND ADAPTIVE IMMUNE RESPONSE” (The Scripps Research Institute, priority 2022, published 2025).
Where two headings read alike, the source gives them in different places.

Key:
[1] = biological target: TLR1/TLR2 (Mus musculus, UniProt Q9EPQ1+Q9QUN7); assay: TNF-α release from thioglycolate-elicited mouse peritoneal macrophages (ELISA); conditions: for Emax: 4 h, read-out: Efficacy (magnitude) of response versus diprovocim-1 (100%), mouse macrophages; for EC50: read-out: EC50 (nM) (mouse): EC50 TNF-α release from mouse macrophages
Chain of TLR1/TLR2 (Mus musculus, UniProt Q9EPQ1+Q9QUN7) (Q9EPQ1 26-795): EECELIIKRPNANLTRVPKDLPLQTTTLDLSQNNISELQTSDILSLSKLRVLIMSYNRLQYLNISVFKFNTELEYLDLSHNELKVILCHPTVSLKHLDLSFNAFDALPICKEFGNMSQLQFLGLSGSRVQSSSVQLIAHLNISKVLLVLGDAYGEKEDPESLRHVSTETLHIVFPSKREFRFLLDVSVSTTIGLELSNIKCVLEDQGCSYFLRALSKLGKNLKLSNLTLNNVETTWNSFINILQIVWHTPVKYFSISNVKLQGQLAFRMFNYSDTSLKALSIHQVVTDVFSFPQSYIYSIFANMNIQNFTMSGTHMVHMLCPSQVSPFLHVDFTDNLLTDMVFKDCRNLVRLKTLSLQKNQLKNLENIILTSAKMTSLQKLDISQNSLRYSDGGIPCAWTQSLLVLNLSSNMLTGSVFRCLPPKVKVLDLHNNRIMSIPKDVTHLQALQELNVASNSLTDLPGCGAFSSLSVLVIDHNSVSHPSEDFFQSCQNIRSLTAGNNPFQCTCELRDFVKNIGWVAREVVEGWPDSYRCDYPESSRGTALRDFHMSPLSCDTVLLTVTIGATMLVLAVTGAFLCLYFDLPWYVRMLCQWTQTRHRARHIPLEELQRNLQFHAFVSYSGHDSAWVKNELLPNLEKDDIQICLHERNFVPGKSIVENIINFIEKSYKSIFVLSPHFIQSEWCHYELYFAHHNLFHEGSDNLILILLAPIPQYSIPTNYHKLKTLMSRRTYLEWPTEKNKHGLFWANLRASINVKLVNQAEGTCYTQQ
Chain of TLR1/TLR2 (Mus musculus, UniProt Q9EPQ1+Q9QUN7) (Q9QUN7 25-784): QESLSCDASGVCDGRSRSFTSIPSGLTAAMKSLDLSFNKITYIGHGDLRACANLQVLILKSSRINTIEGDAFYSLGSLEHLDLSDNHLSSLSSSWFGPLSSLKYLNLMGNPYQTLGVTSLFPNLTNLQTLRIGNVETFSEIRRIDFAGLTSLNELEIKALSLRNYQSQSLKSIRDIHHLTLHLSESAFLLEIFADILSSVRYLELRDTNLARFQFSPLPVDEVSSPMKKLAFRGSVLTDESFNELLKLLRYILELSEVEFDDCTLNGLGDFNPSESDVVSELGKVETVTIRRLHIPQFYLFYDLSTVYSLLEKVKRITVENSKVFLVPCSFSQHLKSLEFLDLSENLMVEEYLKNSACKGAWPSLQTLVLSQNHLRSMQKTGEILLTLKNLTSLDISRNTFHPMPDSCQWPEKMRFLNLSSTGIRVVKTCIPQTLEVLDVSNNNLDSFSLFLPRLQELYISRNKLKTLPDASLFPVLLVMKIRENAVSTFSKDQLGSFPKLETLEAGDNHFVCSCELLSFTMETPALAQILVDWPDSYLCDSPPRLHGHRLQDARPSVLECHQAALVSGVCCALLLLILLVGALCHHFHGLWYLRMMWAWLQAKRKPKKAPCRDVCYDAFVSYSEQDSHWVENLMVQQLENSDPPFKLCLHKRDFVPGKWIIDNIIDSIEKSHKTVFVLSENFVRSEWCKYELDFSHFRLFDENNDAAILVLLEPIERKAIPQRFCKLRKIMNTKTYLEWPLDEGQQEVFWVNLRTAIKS
Experimental: Thioglycolate-elicited macrophages were recovered 4 days after i.p. injection of 2 mL BBL thioglycolate medium, brewer modified (4%; BD Biosciences) by peritoneal lavage with 5 mL phosphate buffered saline (PBS). […] Cells were seeded onto 96-well plates at 1×10^3 cells per well and treated with systematically varied concentrations of the candidate compounds (dissolved in DMSO, and final assay DMSO concentrations (0.5%) were kept constant in all experiments) for 4 h. Ultra-pure LPS (dissolved in H2O, Enzo Life Sciences) was assessed alongside the compounds as a positive control and DMSO treated controls. […] Mouse TNF-α in the supernatants was measured by ELISA kits according to the manufacturer's instructions (eBioscience). EC50's were calculated by Graphpad Prism. All data is mean of duplicates and SD is within ±10% of mean. Mouse cells were from wild type C57BL/6J mice.

[2] = biological target: TLR1/TLR2 (Homo sapiens, UniProt O60603+Q15399); assay: TNF-α release from PMA-differentiated human THP-1 cells (ELISA); conditions: for Emax: THP-1, 4 h, read-out: Efficacy (magnitude) of response versus diprovocim-1 (100%), THP-1; for EC50: read-out: EC50 (nM) (THP-1): EC50 TNF-α release from human THP-1 cells;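 on all read-outs here: cells exposed to graded compound concentrations for 4 h, TNF-α quantified in supernatant, LPS as positive and DMSO as negative control, values are duplicate means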
Chain of TLR1/TLR2 (Homo sapiens, UniProt O60603+Q15399) (Q15399 25-786): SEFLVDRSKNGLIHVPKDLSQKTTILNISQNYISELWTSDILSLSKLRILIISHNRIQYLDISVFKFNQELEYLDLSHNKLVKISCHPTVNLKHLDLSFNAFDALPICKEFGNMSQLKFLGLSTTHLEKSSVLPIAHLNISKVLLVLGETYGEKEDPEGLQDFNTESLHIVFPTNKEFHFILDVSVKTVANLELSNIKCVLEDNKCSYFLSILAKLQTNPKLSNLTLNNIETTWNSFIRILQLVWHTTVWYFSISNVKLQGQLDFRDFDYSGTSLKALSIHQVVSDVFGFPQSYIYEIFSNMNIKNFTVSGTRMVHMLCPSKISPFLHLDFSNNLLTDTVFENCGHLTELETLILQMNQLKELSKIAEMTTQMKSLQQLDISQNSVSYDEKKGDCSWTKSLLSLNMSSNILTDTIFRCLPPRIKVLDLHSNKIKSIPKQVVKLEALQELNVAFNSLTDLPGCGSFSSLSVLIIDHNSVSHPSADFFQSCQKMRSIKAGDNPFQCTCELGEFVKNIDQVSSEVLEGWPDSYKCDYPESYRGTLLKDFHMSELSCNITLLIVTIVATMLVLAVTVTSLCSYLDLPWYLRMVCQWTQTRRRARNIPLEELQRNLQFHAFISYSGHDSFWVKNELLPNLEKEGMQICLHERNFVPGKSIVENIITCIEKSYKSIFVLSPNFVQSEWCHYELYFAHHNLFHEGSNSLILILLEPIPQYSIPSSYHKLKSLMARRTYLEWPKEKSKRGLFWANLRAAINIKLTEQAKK
Chain of TLR1/TLR2 (Homo sapiens, UniProt O60603+Q15399) (O60603 21-784): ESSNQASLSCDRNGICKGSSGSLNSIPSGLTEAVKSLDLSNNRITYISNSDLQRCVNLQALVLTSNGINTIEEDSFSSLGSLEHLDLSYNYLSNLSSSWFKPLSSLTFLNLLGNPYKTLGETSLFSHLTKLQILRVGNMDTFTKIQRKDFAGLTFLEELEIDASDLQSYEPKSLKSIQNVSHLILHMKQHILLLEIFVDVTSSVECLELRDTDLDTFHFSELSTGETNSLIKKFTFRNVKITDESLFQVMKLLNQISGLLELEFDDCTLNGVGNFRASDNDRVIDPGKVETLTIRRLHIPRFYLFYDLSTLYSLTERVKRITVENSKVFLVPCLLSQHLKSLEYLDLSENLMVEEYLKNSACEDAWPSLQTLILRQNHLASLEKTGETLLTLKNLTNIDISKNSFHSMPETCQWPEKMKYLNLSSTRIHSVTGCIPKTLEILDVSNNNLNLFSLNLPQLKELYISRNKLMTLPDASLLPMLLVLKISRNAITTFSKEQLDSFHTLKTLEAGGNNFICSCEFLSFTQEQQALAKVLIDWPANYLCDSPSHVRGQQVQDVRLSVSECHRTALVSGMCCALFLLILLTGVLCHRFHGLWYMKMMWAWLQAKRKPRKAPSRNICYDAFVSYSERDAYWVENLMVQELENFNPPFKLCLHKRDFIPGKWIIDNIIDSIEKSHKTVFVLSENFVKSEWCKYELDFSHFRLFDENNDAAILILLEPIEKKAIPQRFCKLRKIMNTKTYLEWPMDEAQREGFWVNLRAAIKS
Experimental: THP-1 (American Type Culture Collection) cells, a human monocytic leukemia cell line, were differentiated by treatment with 100 nM PMA (Sigma) in Roswell Park Memorial Institute (RPMI) cell culture medium [RPMI containing 10% vol/vol FBS (Gemini Bio Products), 1% penicillin and streptomycin (Life Technologies)] for 24 h. After that, the cells were washed with PBS and cultured in fresh RPMI cell culture medium for 24 h before use in studies. PMA-differentiated THP-1 cells were seeded onto 96-well plates at 0.5×10^5 cells per well and treated with systematically varied concentrations of the candidate compounds (dissolved in DMSO, and the final assay DMSO concentration (0.1%) was kept constant in all experiments) for 4 h. Ultra-pure LPS (dissolved in H2O, Enzo Life Sciences) was assessed alongside the compounds as a positive control and DMSO treated control was used as a negative control. Human TNF-α in the supernatants was measured by ELISA (eBioscience). This assay was used for establishing dose-response curves and measured EC50's. EC50's were calculated by Graphpad Prism. All data is the mean of duplicates and SD is within +10% of mean.

| Emax [1] [%] | EC50 ([1]; Table 6) [nM] | Emax [2] [%] | EC50 ([2]; Table 6) [nM] | EC50 ([1]; Table 1) [nM] | EC50 ([2]; Table 1) [nM] | SMILES | EC50 ([1]; Table 5) [nM] | EC50 ([2]; Table 5) [nM] |
| --- | --- | --- | --- | --- | --- | --- | --- | --- |
| 540 | 50 | 100 | 1.7 |  |  | O=C(OCCCCCCCCCCCCNC(=O)[C@@H]1CN(C(=O)c2ccc(C(=O)N3C[C@@H](C(=O)N[C@H]4C[C@@H]4c4ccccc4)[C@H](C(=O)N[C@H]4C[C@@H]4c4ccccc4)C3)cc2)C[C@H]1C(=O)N[C@H]1C[C@@H]1c1ccccc1)c1ccc(O)cc1 [Compound 75, 12-((3S,4S)-1-(4-((3S,4S)-3,4-Bis(((1S,2R)-2-phenylcyclopropyl)carbamoyl)pyrrolidine-1-carbonyl)benzoyl)-4-(((1S,2R)-2-phenyl-cyclopropyl)carbamoyl)pyrrolidine-3-carboxamido)-dodecyl 4-hydroxybenzoate] |  |  |
| 110 |  | 90 |  |  |  | O=C(NCCCCCCCCCCO)[C@@H]1CN(C(=O)c2ccc(C(=O)N3C[C@@H](C(=O)N[C@H]4C[C@@H]4c4ccccc4)[C@H](C(=O)N[C@H]4C[C@@H]4c4ccccc4)C3)cc2)C[C@H]1C(=O)N[C@H]1C[C@@H]1c1ccccc1 [Compound 8, (3S,4S)-1-(4-((3S,4S)-3,4-Bis(((1S,2R)-2-phenyl-cyclopropyl)carbamoyl)pyrrolidine-1-carbonyl)benzoyl)-N^3-(10-hydroxydecyl)-N^4-((1S,2R)-2-phenylcyclopropyl)-pyrrolidine-3,4-dicarboxamide] |  |  |
|  |  |  |  | 30 | 1.5 | O=C(NCCc1ccccc1)[C@@H]1CN(C(=O)c2ccc(C(=O)N3C[C@@H](C(=O)N[C@H]4C[C@@H]4c4ccccc4)[C@H](C(=O)N[C@H]4C[C@@H]4c4ccccc4)C3)cc2)C[C@H]1C(=O)N[C@H]1C[C@@H]1c1ccccc1 [Compound 23, (3S,4S)-1-(4-((3S,4S)-3,4-Bis(((1S,2R)-2-phenyl-cyclopropyl)carbamoyl)pyrrolidine-1-carbonyl)-benzoyl)-N^3-phenethyl-N^4-((1S,2R)-2-phenylcyclo-propyl)pyrrolidine-3,4-dicarboxamide] |  |  |
| 250 | 6.7 | 120 | 0.23 |  |  | O=C(CNC(=O)C(=O)O)OCCCCCCCCCCCCNC(=O)[C@@H]1CN(C(=O)c2ccc(C(=O)N3C[C@@H](C(=O)N[C@H]4C[C@@H]4c4ccccc4)[C@H](C(=O)N[C@H]4C[C@@H]4c4ccccc4)C3)cc2)C[C@H]1C(=O)N[C@H]1C[C@@H]1c1ccccc1 [Compound 84, 2-((2-((12-((3S,4S)-1-(4-((3S,4S)-3,4-Bis(((1S,2R)-2-phenylcyclopropyl)carbamoyl)pyrrolidine-1-carbonyl)benzoyl)-4-(((1S,2R)-2-phenylcyclopropyl)carbamoyl)pyrrolidine-3-carboxamido)-dodecyl)oxy)-2-oxoethyl)amino)-2-oxoacetic acid] |  |  |

| SMILES | Emax [1] [%] | EC50 ([1]; Table 6) [nM] | Emax [2] [%] | EC50 ([2]; Table 6) [nM] | EC50 ([1]; Table 1) [nM] | EC50 ([2]; Table 1) [nM] | EC50 ([1]; Table 5) [nM] | EC50 ([2]; Table 5) [nM] |
| --- | --- | --- | --- | --- | --- | --- | --- | --- |
| Cc1ccc(S(=O)(=O)n2cnc(C[C@H](NC(=O)OC(C)(C)C)C(=O)OCCCCCCCCCCCCNC(=O)[C@@H]3CN(C(=O)c4ccc(C(=O)N5C[C@@H](C(=O)N[C@H]6C[C@@H]6c6ccccc6)[C@H](C(=O)N[C@H]6C[C@@H]6c6ccccc6)C5)cc4)C[C@H]3C(=O)N[C@H]3C[C@@H]3c3ccccc3)c2)cc1 [Compound 68, (S)-12-((3S,4S)-1-(4-((3S,4S)-3,4-Bis(((1S,2R)-2-phenylcyclopropyl)carbamoyl)pyrrolidine-1-carbonyl)benzoyl)-4-(((1S,2R)-2-phenylcyclopropyl)carbamoyl)pyrrolidine-3-carboxamido)-dodecyl 2-((tert-butoxy-carbonyl)amino)-3-(1-tosyl-1H-imidazol-4-yl)propanoate] | 110 |  | 90 |  |  |  | 35 | 17 |
